Experiment [1] has as its target T1, human amylin receptor (calcitonin receptor co-expressed with receptor activity modifying protein, RAMP3) (hAMYR3) (Homo sapiens, UniProt O60896+P30988).
T1 construct: expressed in transfected cells
T1 sequence (P30988 25-474): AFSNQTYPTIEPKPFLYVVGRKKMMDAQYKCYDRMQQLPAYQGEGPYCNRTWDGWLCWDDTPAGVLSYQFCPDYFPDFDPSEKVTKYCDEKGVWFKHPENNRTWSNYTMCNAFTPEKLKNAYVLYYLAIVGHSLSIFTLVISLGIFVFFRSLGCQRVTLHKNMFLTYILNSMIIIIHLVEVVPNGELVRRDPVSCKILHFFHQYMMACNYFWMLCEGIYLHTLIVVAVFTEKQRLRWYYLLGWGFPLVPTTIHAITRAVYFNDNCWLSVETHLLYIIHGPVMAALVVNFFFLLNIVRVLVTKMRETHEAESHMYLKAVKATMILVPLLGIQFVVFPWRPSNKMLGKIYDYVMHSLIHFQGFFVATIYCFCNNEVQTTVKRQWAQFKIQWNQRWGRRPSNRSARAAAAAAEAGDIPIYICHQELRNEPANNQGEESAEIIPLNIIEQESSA
T1 sequence (O60896 24-148 partner): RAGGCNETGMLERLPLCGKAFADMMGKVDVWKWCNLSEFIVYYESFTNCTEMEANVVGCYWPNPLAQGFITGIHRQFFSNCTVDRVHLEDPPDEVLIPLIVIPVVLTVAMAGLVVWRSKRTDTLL
As to the kind of experiment: cAMP production in 1321N1 cells with stable recombinant expression of human amylin receptor (hAMYR3). Type of experiment: cell-based. The following applies: for Ratio (selectivity hAMYR vs hCTR, ratio of EC50 values at the two receptors): EC50 hCTR / EC50 hAMYR3. The method in brief:
(§1)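 Thawed cells in HBSS/0.1% BSA/25 mM HEPES pH 7.4 with 0.5 mM IBMX were incubated with peptides 30 min at room temperature; cAMP read by HTRF. EC50 from 4-parameter fit of % activation relative to maximal amylin or calcitonin effect.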

Experiment [2] has as its target T2, human calcitonin receptor (hCTR) (Homo sapiens, UniProt P30988).
T2 construct: expressed in transfected cells
T2 sequence (P30988 25-474): T1 sequence (P30988 25-474)
As to the kind of experiment: cAMP production in 1321N1 cells with stable recombinant expression of human calcitonin receptor (hCTR). Type of experiment: cell-based. An outline of the steps:
as §1

[3] abbreviates: cAMP, 1321N1 cells, assay buffer with 0.1% BSA, read-out: EC50 (pM) hAMYR3.
Where [4] appears, read: cAMP, 1321N1 cells, assay buffer with 0.1% BSA, read-out: EC50 (pM) hCTR.

Where two headings read alike, the source gives them in different places. Numbered stars: 1 amine (or outer) side, 2 acyl side, 3 side chain; on linkers, the order of the positions; unused ones are H or OH. Bridge positions count the residues as written; N and C are the ends. Square brackets hold non-standard residues; d marks the D form. Side chains are listed from the residue outwards. Peptide text beside a SMILES is read from it. * marks the point of attachment. C18 diacid = O=C(O)CCCCCCCCCCCCCCCCC(=O)*; γGlu = O=C(O)[C@H](CCC(=O)[*:2])N[*:1]; Dab = NCC[C@H](N)C(=O)O; Aib = CC(C)(N)C(=O)O

In the case of `CC[C@H](C)[C@H](NC(=O)[C@@H]1CCCN1C(=O)CNC(=O)[C@H](Cc1ccccc1)NC(=O)[C@H](CC(N)=O)NC(=O)[C@H](CO)NC(=O)[C@H](CO)NC(=O)[C@H](CO)NC(=O)[C@H](Cc1c[nH]cn1)NC(=O)C(C)(C)NC(=O)[C@H](CC(C)C)NC(=O)[C@H](Cc1ccccc1)NC(=O)[C@H](CC(N)=O)NC(=O)[C@H](C)NC(=O)[C@H](CC(C)C)NC(=O)[C@H](CCCNC(=N)N)NC(=O)[C@H](CCC(N)=O)NC(=O)[C@@H](NC(=O)[C@H](C)NC(=O)[C@@H]1CSSC[C@H](NC(=O)[C@H](CCCCN)NC(=O)[C@@H](N)CCCCNC(=O)CC[C@H](NC(=O)CCCCCCCCCCCCCCCCC(=O)O)C(=O)O)C(=O)N[C@@H](CC(N)=O)C(=O)N[C@@H]([C@@H](C)O)C(=O)N[C@@H](C)C(=O)N[C@@H]([C@@H](C)O)C(=O)N1)[C@@H](C)O)C(=O)N[C@@H](CC(C)C)C(=O)N1CCC[C@H]1C(=O)N1CCC[C@H]1C(=O)N[C@H](C(=O)N[C@@H](CC(N)=O)C(=O)N[C@H](C(=O)NCC(=O)N[C@@H](CO)C(=O)N[C@@H](CC(N)=O)C(=O)N[C@H](C(=O)N[C@@H](Cc1ccc(O)cc1)C(N)=O)[C@@H](C)O)C(C)C)[C@@H](C)O` [Peptide 133] (H-K([γGlu-C18 diacid])KCNTATCATQRLANFL[Aib]HSSSNFGPILPPTNVGSNTY-NH2; disulfide 3-8; N-terminus assumed), in experiment [1], the “Ratio (selectivity hAMYR vs hCTR, ratio of EC50 values at the two receptors)” value came out at 6.8. Moreover, the EC50 in experiment [1] (setting [3]) was 378 pM; in experiment [2] (setting [4]), 2580 pM.
As for `CC[C@H](C)[C@H](NC(=O)[C@@H]1CCCN1C(=O)CNC(=O)[C@H](Cc1ccccc1)NC(=O)[C@H](CC(N)=O)NC(=O)C(C)(C)NC(=O)[C@H](CO)NC(=O)[C@H](CO)NC(=O)[C@H](Cc1c[nH]cn1)NC(=O)[C@@H](NC(=O)[C@H](CC(C)C)NC(=O)[C@H](Cc1ccccc1)NC(=O)[C@H](CC(N)=O)NC(=O)[C@H](C)NC(=O)[C@H](CC(C)C)NC(=O)[C@H](CCCNC(=N)N)NC(=O)[C@H](CCC(N)=O)NC(=O)[C@@H](NC(=O)[C@H](C)NC(=O)[C@@H]1CSSC[C@H](NC(=O)[C@@H](N)CCCCNC(=O)CC[C@H](NC(=O)CC[C@H](NC(=O)CCCCCCCCCCCCCCCCC(=O)O)C(=O)O)C(=O)O)C(=O)N[C@@H](CC(N)=O)C(=O)N[C@@H]([C@@H](C)O)C(=O)N[C@@H](C)C(=O)N[C@@H]([C@@H](C)O)C(=O)N1)[C@@H](C)O)C(C)C)C(=O)N[C@@H](CC(C)C)C(=O)N1CCC[C@H]1C(=O)N1CCC[C@H]1C(=O)N[C@H](C(=O)NC(C)(C)C(=O)N[C@H](C(=O)NCC(=O)N[C@@H](CO)C(=O)N[C@@H](CC(N)=O)C(=O)N[C@H](C(=O)N[C@@H](Cc1ccc(O)cc1)C(N)=O)[C@@H](C)O)C(C)C)[C@@H](C)O` [Peptide 89, K(γE-γE-C18diacid)[CNTATCJATQRLANFLVHSS(Aib)NFGPILPPT(Aib)VGSNTY-amide] (H-K([γGlu-γGlu-C18 diacid])CNTATCATQRLANFLVHSS[Aib]NFGPILPPT[Aib]VGSNTY-NH2; disulfide 2-7; N-terminus assumed), the EC50 in experiment [1] is 447 pM; in experiment [2], 8240 pM.
As to `CC[C@H](C)[C@H](NC(=O)[C@@H]1CCCN1C(=O)CNC(=O)[C@H](Cc1ccccc1)NC(=O)[C@H](CC(N)=O)NC(=O)[C@@H]1CCCN1C(=O)[C@H](CO)NC(=O)[C@H](CO)NC(=O)[C@H](Cc1c[nH]cn1)NC(=O)C(C)(C)NC(=O)[C@H](CC(C)C)NC(=O)[C@H](Cc1ccccc1)NC(=O)[C@H](CC(N)=O)NC(=O)[C@H](C)NC(=O)[C@H](CC(C)C)NC(=O)[C@H](CCCNC(=N)N)NC(=O)[C@H](CCC(N)=O)NC(=O)[C@@H](NC(=O)[C@H](C)NC(=O)[C@@H]1CSSC[C@H](NC(=O)[C@H](CCCCN)NC(=O)[C@@H](N)CCCCNC(=O)CC[C@H](NC(=O)CCCCCCCCCCCCCCCCC(=O)O)C(=O)O)C(=O)N[C@@H](CC(N)=O)C(=O)N[C@@H]([C@@H](C)O)C(=O)N[C@@H](C)C(=O)N[C@@H]([C@@H](C)O)C(=O)N1)[C@@H](C)O)C(=O)N[C@@H](CC(C)C)C(=O)N1CCC[C@H]1C(=O)N1CCC[C@H]1C(=O)N[C@H](C(=O)N[C@@H](CCC(=O)O)C(=O)N[C@H](C(=O)NCC(=O)N[C@@H](CO)C(=O)N[C@@H](CC(N)=O)C(=O)N[C@H](C(=O)N[C@@H](Cc1ccc(O)cc1)C(N)=O)[C@@H](C)O)C(C)C)[C@@H](C)O` [Peptide 138] (H-K([γGlu-C18 diacid])KCNTATCATQRLANFL[Aib]HSSPNFGPILPPTEVGSNTY-NH2; disulfide 3-8), the “Ratio (selectivity hAMYR vs hCTR, ratio of EC50 values at the two receptors)” value in experiment [1] is listed as 4.1. Further, the EC50 turned out to be 612 pM in experiment [1] (setting [3]) and 2510 pM in experiment [2] (setting [4]).
The matching figures for `CC[C@H](C)[C@H](NC(=O)C(C)(C)NC(=O)CNC(=O)[C@H](Cc1ccccc1)NC(=O)[C@H](CC(N)=O)NC(=O)[C@H](CCN)NC(=O)[C@H](CO)NC(=O)[C@H](CO)NC(=O)[C@H](Cc1c[nH]cn1)NC(=O)[C@@H](NC(=O)[C@H](CC(C)C)NC(=O)[C@H](Cc1ccccc1)NC(=O)[C@H](CC(N)=O)NC(=O)[C@H](C)NC(=O)[C@H](CC(C)C)NC(=O)[C@H](CCCNC(=N)N)NC(=O)[C@H](CCC(N)=O)NC(=O)[C@@H](NC(=O)[C@H](C)NC(=O)[C@@H]1CSSC[C@H](NC(=O)[C@H](CCCCN)NC(=O)[C@@H](N)CCCCNC(=O)CC[C@H](NC(=O)CCCCCCCCCCCCCCCCC(=O)O)C(=O)O)C(=O)N[C@@H](CC(N)=O)C(=O)N[C@@H]([C@@H](C)O)C(=O)N[C@@H](C)C(=O)N[C@@H]([C@@H](C)O)C(=O)N1)[C@@H](C)O)C(C)C)C(=O)N[C@@H](CC(C)C)C(=O)N1CCC[C@H]1C(=O)N1CCC[C@H]1C(=O)N[C@H](C(=O)N[C@@H](CC(N)=O)C(=O)N[C@H](C(=O)NCC(=O)N[C@@H](CO)C(=O)N[C@@H](CC(N)=O)C(=O)N[C@H](C(=O)N[C@@H](Cc1ccc(O)cc1)C(N)=O)[C@@H](C)O)C(C)C)[C@@H](C)O` [Peptide 31, K(γE-C18diacid)K[CNTATC]ATQRLANFLVHSS(Dab)NFG(Aib)ILPPTNVGSNTY-amide] (H-K([γGlu-C18 diacid])KCNTATCATQRLANFLVHSS[Dab]NFG[Aib]ILPPTNVGSNTY-NH2; disulfide 3-8; N-terminus assumed): 4, 349 pM and 1280 pM.
For `CC[C@H](C)[C@H](NC(=O)[C@@H]1CCCN1C(=O)CNC(=O)[C@H](Cc1ccccc1)NC(=O)[C@H](CC(N)=O)NC(=O)C(C)(C)NC(=O)[C@H](CO)NC(=O)[C@H](CO)NC(=O)[C@H](Cc1c[nH]cn1)NC(=O)[C@@H](NC(=O)[C@H](CC(C)C)NC(=O)[C@H](Cc1ccccc1)NC(=O)[C@H](CC(N)=O)NC(=O)[C@H](C)NC(=O)[C@H](CC(C)C)NC(=O)[C@H](CCCNC(=N)N)NC(=O)[C@H](CCC(N)=O)NC(=O)[C@@H](NC(=O)[C@H](C)NC(=O)[C@@H]1CSSC[C@H](NC(=O)[C@H](CCCCN)NC(=O)[C@@H](N)CCCCNC(=O)CC[C@H](NC(=O)CCCCCCCCCCCCCCCCC(=O)O)C(=O)O)C(=O)N[C@@H](CC(N)=O)C(=O)N[C@@H]([C@@H](C)O)C(=O)N[C@@H](C)C(=O)N[C@@H]([C@@H](C)O)C(=O)N1)[C@@H](C)O)C(C)C)C(=O)N[C@@H](CC(C)C)C(=O)N1CCC[C@H]1C(=O)N1CCC[C@H]1C(=O)N[C@H](C(=O)N[C@@H](CC(N)=O)C(=O)N[C@H](C(=O)NCC(=O)N[C@@H](CO)C(=O)NC(C)(C)C(=O)N[C@H](C(=O)N[C@@H](Cc1ccc(O)cc1)C(N)=O)[C@@H](C)O)C(C)C)[C@@H](C)O` [Peptide 82, K(γE-C18diacid)K[CNTATC]ATQRLANFLVHSS(Aib)NFGPILPPTNVGS(Aib)TY-amide] (H-K([γGlu-C18 diacid])KCNTATCATQRLANFLVHSS[Aib]NFGPILPPTNVGS[Aib]TY-NH2; disulfide 3-8) the same measures were 8, 514 pM and 4280 pM.

Source of the values: patent US20240067693A1, “POLYPEPTIDES AND USES THEREOF” (MEDIMMUNE LIMITED, priority 2020, published 2024).
